Reference: patent US6376175B1, “Methods of discovering chemicals capable of functioning as gene expression modulators” (OSI Pharmaceuticals, Inc., priority 1989, dated 2002)

How the values were obtained:
G-CSF promoter = assay: G-CSF promoter-luciferase induction by known inducers, clone G 1002 (5637 cells); assay type: cell-based, human
Excerpt: Cloning of G-CSF sequences is described in Experimental Details, section B-3. In order to correctly fuse the G-CSF upstream sequences to the luciferase start codon, oligonucleotides were synthesized which contain the G-CSF leader sequence from +15 to the ATG (32), and were cloned into pUC19 to create pGUC84 (FIG. 29). […] The G-CSF-oligonucleotide-containing NcoI/ScaI fragment from pGUC84 was then isolated and ligated to the luciferase-containing NcoI/ScaI fragment from pUV100 to create pGUV100 (FIG. 30). Following this, the PstI fragment of the G-CSF promoter was isolated form pJM710 (FIG. 7) and inserted into the PstI site in pGUV100 generating pGUV1(FIG. 31). The rest of the G-CSF promoter clone was added by ligating the G-CSF-luciferase containing SfiI/ScaI fragment from pGUV1 to the appropriate SfiI/ScaI fragment from pJM710, creating the plasmid pGUV2 (FIG. 32). The XbaI fragment from pGUV2 containing the G-CSF-luciferase fusion was then cloned into pUV103 previously digested with XbaI/SpeI, generating pGUV140 (FIG. 33). Finally, a TK-Neo cassette (Section C) was included by ligating the ScaI/XbaI fragment from pGUV140 which contains the G-CSF-luciferase fusion into pTKNEO103 previously digested with ScaI/XbaI, yielding the final vector pGUV150 (FIG. 34).
All the following constructs were transfected into 5637 bladder carcinoma cells either by electroporation using a BRL (Gaithersburg, Md.) Cellporator electroporation device or by lipofection using BRL lipofectin and following the manufacturer's protocol. For electroporation, cells were trypsinized, treated with Soybean trypsin inhibitor (1 mg/ml), washed three times in Dulbecco's modified Eagle's medium (DMEM) without pH indicator, and 1 ml of cell suspension in DMEM was electroporated at room temperature and at a cell density of 5 million cells per ml at a voltage of 250 V and a capacitance of 1180 microFarad with the electroporation device set at low resistance. In previous experiments these parameters had been determined to result in optimal electroporation efficiency. About 15 min after electroporation cells were recovered from the disposable electroporation containers (BRL, Gaithersburg, Md.) and plated in RPMI containing 10% fetal calf serum. 2 days after electroporation 0.4 mg/ml G 418 were added and clonal cell colonies were picked 14-20 days after transfection. Clones were first analysed for luciferase expression using Lysis Buffer 1 without bovine serum albumin (see Section F) and those testing positive expanded further and frozen in liquid nitrogen. Further analysis of 6 clones (G 1002, G 2005, G 2071, G 2085, G 3014, G3031) included Southern blotting, reaction to known inducers, satisfactory attachment to microtiter plates and acceptable standard deviation in multiple luciferase expression assays. Clones G 2005 and G 2085 were derived from 5637 cells lipofected with 100 ug/ml of linearized pGVU150 (FIG. 34), G 3031 descends from cells electroporated with 100 ug/ml of linearized pGVU150, whereas 200 ug/ml of the same plasmid were used to generate G 3014. Cotransfection of circular pGVU140 (FIG. 33) with circular pTKNeo3 (FIG. 19) was used to generate clones G 1002 and G 2071. While G 1002 resulted from co-electroporation of 50 and 5 ug/ml of the two plasmids, G 2071 descends from cells lipofected with 100 and 10 ug.
Cell clones with correctly integrated promoter/reporter constructs were analysed for correct reaction to known transcriptional inducers. […] Both TNF-alpha- and PMA-induction levels of clone G 1002 were influenced by the presence or absence of epidermal growth factor (EGF). […] The 9.3fold induction by PMA in the absence of EGF was reduced to 5.6fold by including EGF in the serum-free incubation mixture. Similar differences were observed, when EGF was substituted by 10% fetal calf serum.

secreted G-CSF protein = assay: Two-antibody sandwich immunoassay of G-CSF secreted by 5637 bladder carcinoma cells; assay type: cell-based, human; conditions: 5637 cells, 48 hours, serum-containing media; TNF-alpha 5 ng/ml; #542 50 uM; #1780 1 uM and 0.2 uM; FIG. 55
Protocol: Supernatants from 5637 bladder carcinoma cells incubated with chemicals registering as positives in the G-CSF promoter/luciferase High-Throughput assay were assayed for secreted G-CSF protein using the two-antibody sandwich immunoassay (96). The G-CSF Assay kit manufactured by Oncogene Science, Inc. was used and the manufacturer's instructions were followed.
The levels of G-CSF in the cell supernatants were determined by a sandwich-antibody assay as described in Materials and Methods (FIG. 55).

[1] = 7-hour incubation, serum-free defined media with 20 ng/ml EGF
[2] = 7-hour incubation, serum-free defined media, absence of EGF
[3] = 10.5 hours, serum-containing media, 8.3 ng/ml TNF-alpha, 20 ng/ml PMA, 0.5 ng/ml Interleukin-1 beta, or mixtures as labelled

Molecule	G-CSF promoter induction, clone G 1002 (G-CSF promoter; [1]) [fold]	G-CSF promoter induction, clone G 1002 (G-CSF promoter; [2]) [fold]	G-CSF promoter induction, clone G 1002 (G-CSF promoter; [3]) [fold]	G-CSF secretion into media (secreted G-CSF protein)
CCCCCCCCCCCCCC(=O)O[C@@H]1[C@@H](C)[C@@]2(O)[C@@H](C=C(CO)C[C@]3(O)C(=O)C(C)=C[C@@H]23)[C@@H]2C(C)(C)[C@]12OC(C)=O [PMA, phorbo-myristate-acetate, reference compound]	5.6	9.3	4.4	–
TNF-alpha	3	4	2	increased G-CSF secretion
